Test results from patent publication US8044044B2, “4-(1-amino-ethyl)-cyclohexylamine derivatives” (Actelion Pharmaceutical Ltd., priority 2006, dated 2011).
In brackets after ≈: the same amount, converted by molar mass.

Legend:
[1] = tested on: S. aureus A798; test: MIC by broth microdilution (NCCLS), S. aureus A798; assay type: cell-based, Staphylococcus aureus; conditions: strain A798, cation-adjusted Mueller-Hinton Broth, pH 7.2-7.3; for MIC: Staphylococcus aureus
Procedure: (§1) These assays have been performed following the description given in “Methods for dilution Antimicrobial Susceptibility Tests for Bacteria that Grow Aerobically, 4th ed.; Approved standard: NCCLS Document M7-A4; National Committee for Clinical Laboratory Standards: Villanova, Pa., USA, 1997”. Minimal inhibitory concentrations (MICs; mg/l) were determined in cation-adjusted Mueller-Hinton Broth (BBL) by a microdilution method following NCCLS guidelines (National Committee for Clinical Laboratory Standards. Methods for Dilution Antimicrobial Susceptibility). The pH of the test medium was 7.2-7.3.

[2] = tested on: P. aeruginosa A1124; test: MIC by broth microdilution (NCCLS), P. aeruginosa A1124; assay type: cell-based, Pseudomonas aeruginosa; conditions: strain A1124, cation-adjusted Mueller-Hinton Broth, pH 7.2-7.3; for MIC: Pseudomonas aeruginosa
Procedure: as §1

[3] = tested on: A. baumanii T6474; test: MIC by broth microdilution (NCCLS), A. baumanii T6474; assay type: cell-based, Acetinobacter baumannii; conditions: strain T6474, cation-adjusted Mueller-Hinton Broth, pH 7.2-7.3; for MIC: Acinetobacter baumannii
Procedure: as §1

Row | SMILES | MIC ([1]; second table, all Examples) | MIC S. aureus A798 ([1]; second table, all Examples) | further results
1 | COc1ccc2nccc(CC(N)[C@H]3CC[C@H](NCC=Cc4cc(F)ccc4F)CC3)c2n1 (mixture of isomers) [Example 4, trans-{4-[(1RS)-1-amino-2-(6-methoxy-[1,5]naphthyridin-4-yl)-ethyl]-cyclohexyl}-[3-(2,5-difluoro-phenyl)-allyl]-amine] | 0.063 µg/mL (≈ 0.139 µM) | – | –
2 | COC(=O)c1ccc(CC(N)[C@H]2CC[C@H](NC/C=C/c3cc(F)ccc3F)CC2)c2nc(OC)ccc12 (mixture of isomers) [Example 5, 8-[(2RS)-2-amino-2-trans-{4-[(E)-3-(2,5-difluoro-phenyl)-allylamino]-cyclohexyl}-ethyl]-2-methoxy-quinoline-5-carboxylic acid methyl ester] | – | 0.125 mg/L (≈ 0.245 µM) | –
3 | COc1ccc2c(CO)ccc(CC(N)[C@H]3CC[C@H](NC/C=C/c4cc(F)ccc4F)CC3)c2n1 (mixture of isomers) [Example 6, [8-((2RS)-2-amino-2-trans-{4-[3-(E)-(2,5-difluoro-phenyl)-allylamino]-cyclohexyl}-ethyl)-2-methoxy-quinolin-5-yl]-methanol] | – | 0.125 mg/L (≈ 0.26 µM) | MIC P. aeruginosa A1124 [2]: 0.5 mg/L (≈ 1.04 µM); MIC S. aureus A798 ([1]; table of typical results): 0.125 mg/L (≈ 0.26 µM); MIC A. baumanii T6474 [3]: 16 mg/L (≈ 33.2 µM)
4 | COc1cnc2cccc(CC(N)[C@H]3CC[C@H](NCc4ccc5c(n4)NC(=O)CS5)CC3)c2n1 (mixture of isomers) [Example 7, 6-(trans-{4-[(1RS)-1-amino-2-(3-methoxy-quinoxalin-5-yl)-ethyl]-cyclohexylamino}-methyl)-4H-pyrido[3,2-b][1,4]thiazin-3-one] | 0.063 µg/mL (≈ 0.132 µM) | – | –
5 | COc1cnc2cccc(CC(N)[C@H]3CC[C@@H](NCc4ccc5c(n4)NC(=O)CS5)CC3)c2n1 (mixture of isomers) [Example 8, 6-(cis-{4-[(1RS)-1-amino-2-(3-methoxy-quinoxalin-5-yl)-ethyl]-cyclohexylamino}-methyl)-4H-pyrido[3,2-b][1,4]thiazin-3-one] | 1 µg/mL (≈ 2.09 µM) | – | –
6 | COc1ccc2nccc(CC(N)[C@H]3CC[C@H](NCc4ccc5c(n4)NC(=O)CO5)CC3)c2n1 (mixture of isomers) [Example 9, 6-(trans-{4-[(1RS)-1-amino-2-(6-methoxy-[1,5]naphthyridin-4-yl)-ethyl]-cyclohexylamino}-methyl)-4H-pyrido[3,2-b][1,4]oxazin-3-one] | 0.5 µg/mL (≈ 1.08 µM) | – | –
7 | COc1ccc2ncc(F)c(CC(N)[C@H]3CC[C@H](NCc4ccc5c(n4)NC(=O)CS5)CC3)c2c1 (mixture of isomers) [Example 10, trans-6-({4-[(1RS)-1-amino-2-(3-fluoro-6-methoxy-quinolin-4-yl)-ethyl]-cyclohexylamino}-methyl)-4H-pyrido[3,2-b][1,4]thiazin-3-one] | 0.031 µg/mL (≈ 0.0625 µM) | – | –
8 | COc1ccc2ncc(F)c(CC(N)[C@H]3CC[C@@H](NCc4ccc5c(n4)NC(=O)CS5)CC3)c2c1 (mixture of isomers) [Example 11, cis-6-({4-[(1RS)-1-amino-2-(3-fluoro-6-methoxy-quinolin-4-yl)-ethyl]-cyclohexylamino}-methyl)-4H-pyrido[3,2-b][1,4]thiazin-3-one] | – | 0.5 mg/L (≈ 1.01 µM) | MIC [2]: 0.125 µg/mL (≈ 0.252 µM); MIC ([1]; table of typical results): 0.5 µg/mL (≈ 1.01 µM); MIC [3]: 4 µg/mL (≈ 8.07 µM)
9 | COc1ccc2ncc(F)c(CC(N)[C@H]3CC[C@H](NC/C=C/c4cc(F)ccc4F)CC3)c2c1 (mixture of isomers) [Example 12, trans-{4-[(1RS)-1-amino-2-(3-fluoro-6-methoxy-quinolin-4-yl)-ethyl]-cyclohexyl}-[3-(E)-(2,5-difluoro-phenyl)-allyl]-amine] | ≤ 0.031 µg/mL | – | –
10 | COc1ccc2ncc(F)c(CC(N)[C@H]3CC[C@@H](NC/C=C/c4cc(F)ccc4F)CC3)c2c1 (mixture of isomers) [Example 13, cis-{4-[(1RS)-1-amino-2-(3-fluoro-6-methoxy-quinolin-4-yl)-ethyl]-cyclohexyl}-[3-(E)-(2,5-difluoro-phenyl)-allyl]-amine] | 0.063 µg/mL (≈ 0.134 µM) | – | –
11 | COc1ccc2ncc(F)c(CC(N)[C@H]3CC[C@H](NCc4ccc5c(n4)NC(=O)CS5)CC3)c2n1 (mixture of isomers) [Example 14, trans-6-({4-[(1RS)-1-amino-2-(3-fluoro-6-methoxy-[1,5]naphthyridin-4-yl)-ethyl]-cyclohexylamino}-methyl)-4H-pyrido[3,2-b][1,4]thiazin-3-one] | ≤ 0.031 µg/mL | – | –
12 | COc1ccc2ncc(F)c(CC(N)[C@H]3CC[C@@H](NCc4ccc5c(n4)NC(=O)CS5)CC3)c2n1 (mixture of isomers) [Example 15, cis-6-({4-[(1RS)-1-amino-2-(3-fluoro-6-methoxy-[1,5]naphthyridin-4-yl)-ethyl]-cyclohexylamino}-methyl)-4H-pyrido[3,2-b][1,4]thiazin-3-one] | 0.25 µg/mL (≈ 0.503 µM) | – | –
13 | COc1ccc2ncc(F)c(CC(N)[C@H]3CC[C@H](NCc4ccc5c(c4)NC(=O)CO5)CC3)c2c1 (mixture of isomers) [Example 16, trans-6-({4-[(1RS)-1-amino-2-(3-fluoro-6-methoxy-quinolin-4-yl)-ethyl]-cyclohexylamino}-methyl)-4H-benzo[1,4]oxazin-3-one] | 0.063 µg/mL (≈ 0.132 µM) | – | –
14 | COc1ccc2nccc(CC(N)[C@H]3CC[C@H](NCc4ccc5c(c4)NC(=O)CO5)CC3)c2c1 (mixture of isomers) [Example 19, trans-6-({4-[(1RS)-1-amino-2-(6-methoxy-quinolin-4-yl)-ethyl]-cyclohexylamino}-methyl)-4H-benzo[1,4]oxazin-3-one] | 1 µg/mL (≈ 2.17 µM) | – | –
15 | COc1ccc2nccc(CC(N)[C@H]3CC[C@H](NCc4ccc5c(n4)NC(=O)CS5)CC3)c2c1 (mixture of isomers) [Example 20, trans-6-({4-[(1RS)-amino-2-(6-methoxy-quinolin-4-yl)-ethyl]-cyclohexylamino}-methyl)-4H-pyrido[3,2-b][1,4]thiazin-3-one] | – | 0.125 mg/L (≈ 0.262 µM) | –
16 | COc1ccc2nccc(CC(N)[C@H]3CC[C@H](NCc4ccc5c(n4)NC(=O)CO5)CC3)c2c1 (mixture of isomers) [Example 21, trans-6-({4-[(1RS)-amino-2-(6-methoxy-quinolin-4-yl)-ethyl]-cyclohexylamino}-methyl)-4H-pyrido[3,2-b][1,4]oxazin-3-one] | – | 0.5 mg/L (≈ 1.08 µM) | –
17 | COc1ccc2nccc([C@@H](O)[C@H](N)[C@H]3CC[C@H](NCc4ccc5c(n4)NC(=O)CS5)CC3)c2n1 (relative stereo) [Example 3, 6-(trans-{4-[(1R*,2R*)-1-amino-2-hydroxy-2-(6-methoxy-[1,5]naphthyridin-4-yl)-ethyl]-cyclohexylamino}-methyl)-4H-pyrido[3,2-b][1,4]thiazin-3-one] | 0.125 µg/mL (≈ 0.253 µM) | – | –
18 | COc1ccc2nccc([C@@H](O)[C@H](N)[C@H]3CC[C@H](NCc4ccc5c(c4)OCCO5)CC3)c2n1 (relative stereo) [Example 17, trans-(1R*,2R*)-2-amino-2-{4-[(2,3-dihydro-benzo[1,4]dioxin-6-ylmethyl)-amino]-cyclohexyl}-1-(6-methoxy-[1,5]naphthyridin-4-yl)-ethanol] | – | 0.063 mg/L (≈ 0.136 µM) | MIC [2]: 2 µg/mL (≈ 4.31 µM); MIC ([1]; table of typical results): 0.063 µg/mL (≈ 0.136 µM); MIC [3]: 16 µg/mL (≈ 34.4 µM)
19 | COc1ccc2nccc([C@@H](O)[C@H](N)[C@H]3CC[C@H](NC/C=C/c4cc(F)ccc4F)CC3)c2n1 (relative stereo) [Example 18, trans-(1R*,2R*)-2-amino-2-{4-[(E)-3-(2,5-difluoro-phenyl)-allylamino]-cyclohexyl}-1-(6-methoxy-[1,5]naphthyridin-4-yl)-ethanol] | ≤ 0.031 µg/mL | – | –
20 | COc1ccc2nccc(C[C@@H](N)[C@H]3CC[C@H](NCc4ccc5c(n4)NC(=O)CS5)CC3)c2n1 [Example 1, 6-(trans-{4-[(1R)-1-amino-2-(6-methoxy-[1,5]naphthyridin-4-yl)-ethyl]-cyclohexylamino}-methyl)-4H-pyrido[3,2-b][1,4]thiazin-3-one] | – | 4 mg/L (≈ 8.36 µM) | MIC [2]: 0.063 µg/mL (≈ 0.132 µM); MIC ([1]; table of typical results): 4 µg/mL (≈ 8.36 µM); MIC [3]: 32 µg/mL (≈ 66.9 µM)
21 | COc1ccc2nccc(C[C@H](N)[C@H]3CC[C@H](NCc4ccc5c(n4)NC(=O)CS5)CC3)c2n1 [Example 2, 6-(trans-{4-[(1S)-1-amino-2-(6-methoxy-[1,5]naphthyridin-4-yl)-ethyl]-cyclohexylamino}-methyl)-4H-pyrido[3,2-b][1,4]thiazin-3-one] | 0.125 µg/mL (≈ 0.261 µM) | – | –
